Assay results from patent US10640441B2, “Difluorinated compounds as depigmenting or lightening agents” (TFCHEM, priority 2016, dated 2020).
“And” between values parts separate entries of the source, which are not always exact repeats. Equal values may be shown once.

What was measured:
human tyrosinase = assay: Inhibition of human tyrosinase in-tubo (HumanLike Tyrosinase Assay kit, Feldan); type: biochemical; conditions: 1.12 mM
Experimental: The efficacy of compound 8 was evaluated by the inhibition of human tyrosinase in-tubo and compared to the prior art compound deoxyarbutin.
The assay was performed with a ready-to-use kit from Feldan Inc (Canada): the HumanLike Tyrosinase Assay kit (ref A021-a-001Kit).
The protocol was performed as described in the instructions for use of the manufacturer. Briefly, this kit is intended for the determination of human tyrosinase activity in presence of different inhibitors. The kit measures the conversion of L-Tyrosine into a dopachrome complex absorbing at 490 nm. The time course of the assay is 20 minutes, after which the results are analyzed and compared.
The compound 8 and deoxyarbutin have been tested at a final concentration of 1.12 mM. The measured absorbances at 490 nm are reported in the table 1 and plotted in function of time in the FIG. 1.
Moreover for each compound the efficacy as tyrosinase inhibitor was calculated using the following formula: […]

NHEM culture = assay: Determination of the higher non-cytotoxic concentration on NHEM culture; type: cell-based, human
Experimental: The compounds have been tested beforehand at different concentrations on the NHEM culture to determine the higher non-cytotoxic concentration to be used to evaluate the potential inhibition of melanin synthesis. The determined concentration was 300 μM for all compounds: 8, 16, 28a.

[1] = tested on: normal human epidermal melanocytes (NHEM); assay: Inhibition of melanin synthesis in L-tyrosine-stimulated human epidermal melanocytes; type: cell-based; conditions: 300 μM; stimulation by L-tyrosine (1 mM); 240 hours; n=3
Experimental: Human melanocytes are stimulated by L-tyrosine to induce an increase of the melanin synthesis and be able to measure an inhibition of this synthesis when a whitening agent is added.
Biological model: normal human epidermal melanocytes (NHEM), lightly pigmented, were cultured in medium M254 supplemented with PMA free HMGS-2; Insulin 5 ag/ml; Penicillin 50 U/ml; Streptomycin 50 ag/ml; Gentamycin 25 μg/ml (incubator: 37° C. and 5% CO2).
Culture and treatment: melanocytes were seeded in 24-well plates and cultured in culture medium for 24 hours. The medium was then replaced by culture medium containing the test compounds or not (stimulated control) in presence of the inducer (L-tyrosine at 1 mM). The cells were then incubated for 240 hours with 2 treatment renewals after 72 and 168 hours of incubation. A non-stimulated control was performed in parallel. All experimental conditions were performed in n=3.
Melanin assay: at the end of incubation, the culture supernatants were removed and the melanin was extracted by cell lysis using a 0.5 N NaOH solution. The optical density (OD) of each experimental point was measured at 405 nm and melanin quantity was calculated using melanin standards (standard curve 0.39 to 100 μg/ml melanin). Results were expressed in […] of melanin.

Oc1ccc(O[C@@H]2[C@H](O)[C@@H](O)CCC2(F)F)cc1 [Compound 8]
Inhibitor efficacy (%) (human tyrosinase; T = 20 min): 32.0% | times better efficacy than deoxyarbutin on human tyrosinase inhibition (human tyrosinase; T = 20 min): 3.4 times | OD at 490 nm (human tyrosinase; time 0 min): 0.0000 | OD at 490 nm (human tyrosinase; time 1 min): 0.0080 | OD at 490 nm (human tyrosinase; time 2 min): 0.0170 | OD at 490 nm (human tyrosinase; time 3 min): 0.0245 | OD at 490 nm (human tyrosinase; time 4 min): 0.0345 | OD at 490 nm (human tyrosinase; time 5 min): 0.0415 | OD at 490 nm (human tyrosinase; time 6 min): 0.0505 | OD at 490 nm (human tyrosinase; time 7 min): 0.0610 | OD at 490 nm (human tyrosinase; time 8 min): 0.0675 | OD at 490 nm (human tyrosinase; time 9 min): 0.0755 | OD at 490 nm (human tyrosinase; time 10 min): 0.0845 | OD at 490 nm (human tyrosinase; time 11 min): 0.0935 | OD at 490 nm (human tyrosinase; time 12 min): 0.1015 | OD at 490 nm (human tyrosinase; time 13 min): 0.1090 | OD at 490 nm (human tyrosinase; time 14 min): 0.1165 | OD at 490 nm (human tyrosinase; time 15 min): 0.1255 | OD at 490 nm (human tyrosinase; time 16 min): 0.1355 | OD at 490 nm (human tyrosinase; time 17 min): 0.1405 | OD at 490 nm (human tyrosinase; time 18 min): 0.1495 | OD at 490 nm (human tyrosinase; time 19 min): 0.1575 | OD at 490 nm (human tyrosinase; time 20 min): 0.1665 | higher non-cytotoxic concentration (NHEM culture): 300 µM | Melanin synthesis (μg/ml), single replicates [1]: 9.2 μg/ml (2×) and 9.4 μg/ml | Melanin synthesis, Mean [1]: 9.3 µg/mL

N[C@@H]1CCCC(F)(F)[C@@H]1Oc1ccc(O)cc1 [Compound 28a]
higher non-cytotoxic concentration (NHEM culture): 300 µM | Melanin synthesis (μg/ml), single replicates [1]: 9.9 µg/mL and 10.5 µg/mL and 10.2 µg/mL | Melanin synthesis, Mean [1]: 10.2 µg/mL

Oc1ccc(OC2C(O)CCCC2(F)F)cc1 (racemic) [Compound 16]
higher non-cytotoxic concentration (NHEM culture): 300 µM | Melanin synthesis (μg/ml), single replicates [1]: 7.9 μg/ml and 8.2 μg/ml (2×) | Melanin synthesis, Mean [1]: 8.1 µg/mL

Oc1ccc(OC2CCCCO2)cc1 (stereo not drawn) [Deoxyarbutin, deoxyarbutin, reference compound]
Inhibitor efficacy (%) (human tyrosinase; T = 20 min): 9.4% | OD at 490 nm (human tyrosinase; time 0 min): 0.0000 | OD at 490 nm (human tyrosinase; time 1 min): 0.0100 | OD at 490 nm (human tyrosinase; time 2 min): 0.0195 | OD at 490 nm (human tyrosinase; time 3 min): 0.0290 | OD at 490 nm (human tyrosinase; time 4 min): 0.0385 | OD at 490 nm (human tyrosinase; time 5 min): 0.0480 | OD at 490 nm (human tyrosinase; time 6 min): 0.0585 | OD at 490 nm (human tyrosinase; time 7 min): 0.0695 | OD at 490 nm (human tyrosinase; time 8 min): 0.0800 | OD at 490 nm (human tyrosinase; time 9 min): 0.0935 | OD at 490 nm (human tyrosinase; time 10 min): 0.1035 | OD at 490 nm (human tyrosinase; time 11 min): 0.1155 | OD at 490 nm (human tyrosinase; time 12 min): 0.1265 | OD at 490 nm (human tyrosinase; time 13 min): 0.1385 | OD at 490 nm (human tyrosinase; time 14 min): 0.1500 | OD at 490 nm (human tyrosinase; time 15 min): 0.1615 | OD at 490 nm (human tyrosinase; time 16 min): 0.1735 | OD at 490 nm (human tyrosinase; time 17 min): 0.1846 | OD at 490 nm (human tyrosinase; time 18 min): 0.1975 | OD at 490 nm (human tyrosinase; time 19 min): 0.2095 | OD at 490 nm (human tyrosinase; time 20 min): 0.2220
